The target of one data set is T1, α1β2γ2 GABAA receptors (Rattus norvegicus, UniProt P18508+P62813).
T1 construct: expressed in transfected cells; host or cells: Xenopus laevis oocytes, cRNA microinjection
The data set can be described thus: Stimulation of currents elicited by GABA (EC3-5), two-electrode voltage clamp, receptors expressed in Xenopus oocytes. Format: cell-based. An excerpt:
7-Chloro-3-(5-dimethylaminomethyl-[1,2,4]oxadiazol-3-yl)-5-methyl-4,5-dihydro-imidazol[1,5,-a][1,4]benzodiazepine-6-one was used to test the effects of the compound of formula (II): […]
Similar procedures were chosen as for the investigation of other GABAA receptor subunit specific substances (e.g., Baur et al., 2005; Mol. Pharmacol. 68, 787-792).
Lobes of the ovary containing the follicles were obtained by surgical procedures from female Xenopus laevis. Follicles were singled out using a platinum loop. Fifty nL of cRNA solution at a ratio of αx:β2:γ2 of 1:1:5 (3.3-10 nM αx (x=1, 2, 3, 5); 3.3-10 nM β2; 16.7-50 nM γ2) (Boileau et al., 2002; Neuropharmacology 43, 695-700) were microinjected into Xenopus follicles. Several hours after microinjection the follicles were freed of follicular layers and adhering connective tissue by a collagenase/hypertonic shock procedure (Sigel, 1987; J. Physiol. (Land) 386, 73-90). Oocytes were kept at constant 18° C. until measurement (1-4 days) in a modified Barth solution (88 mM NaCl, 1 mM KCl, 2.4 mM NaHCO3, 10 mM Hepes-NaOH (pH 7.5), 0.82 mM MgSO4×7H2O, 0.34 mM Ca(NO3)2×4H2O, 0.41 mM CaCl2×2H2O, 100 U Penicillin/mL, 100 μg Streptomycin/mL, sterile filtered).
Currents were measured using a home-built amplifier in combination with a xy-recorder or were digitized using a MacLab/200 (AD Instruments) and stored on a computer. Xenopus oocytes were voltage clamped using the two-electrode voltage clamp technique (electrode resistance about 0.8 MΩ) at −80 mV. The medium contained 90 mM NaCl, 1 mM KCl, 1 mM MgCl2, 1 mM CaCl2, 10 mM Na-Hepes (pH 7.4) and 0.5% DMSO.
GABA was applied for 20-50 seconds without or in combination with other drugs and a washout period of 4 minutes was allowed to ensure full recovery from desensitization, which was experimentally determined. The perfusion solution (6 mL/min) was applied through a glass capillary with an inner diameter of 1.35 mm, the mouth of which was placed about 0.4 mm from the surface of the oocyte. The rate of solution change under our conditions has been estimated 70% within less than 0.5 s (Sigel et al., 1990; Neuron 5, 703-711). The entire perfusion system and the assay chamber were cleaned between drug applications by washing with DMSO.
Data is given as mean±SD, except in the figures where data is shown for clarity as mean±SEM. Current stimulation was calculated as follows: stimulation (%)=((I(GABA+modulator)−I(GABA))/I(GABA))×100%, where I is the current amplitude. Where indicated, the stimulation was standardized to the stimulation by 1 μM diazepam (100%). To obtain FIGS. 1-4, values for current stimulation obtained at a given concentration of modulator at a given subunit combination were averaged. The data points were fitted with the equation stimulation=efficacy/(1+(potency/concentration of modulator)). The values given in the Tables (Summary) are obtained by fitting individual curves and subsequently averaging efficacy and potency. […]
GABA was then applied in combination with various concentrations of the compound of formula (II) between 0.3 nM and 3,000 nM to produce a cumulative concentration response curve. […] In each batch of oocytes the stimulation by 1 μM diazepam was determined in five oocytes, extent of stimulation averaged and defined as 100%. Where indicated, stimulation by the compound of formula (II) in each batch of oocytes was expressed as a percentage of this value in the corresponding batch. […]
Background: In two-electrode clamp one electrode senses voltage and the other passes current.

Data set [1] is described as follows: Pharmacokinetic profile in non-elderly adults and the elderly (FIG. 16). In kind it is in vivo, human. To be noted: free base. An excerpt: FIG. 16 is a chart showing an exemplary pharmacokinetic (PK) profile of the compound of formula (II) (free base) in both the non-elderly adults and the elderly. Mean dose adjusted plasma concentrations of the compound of formula (II) (free base) in non-elderly (open circle) and elderly males (open square) and M1 (active metabolite of the compound of formula (II) (free base)) in non-elderly adults (filled circle) and the elderly (filled square).
As a result, the inventors determined that the same or similar doses of the compound of formula (II), which are effective for non-elderly adults (18-64 years of age), could be effective for the elderly.

This is an account of results in patent publication US10370378B2, “Treatment of sleep disorders” (Evotec International GmbH, priority 2007, dated 2019).

The structures appear in SMILES notation. “Also recorded” adds a separate entry of the source.

T1 sequence (P62813 28-455): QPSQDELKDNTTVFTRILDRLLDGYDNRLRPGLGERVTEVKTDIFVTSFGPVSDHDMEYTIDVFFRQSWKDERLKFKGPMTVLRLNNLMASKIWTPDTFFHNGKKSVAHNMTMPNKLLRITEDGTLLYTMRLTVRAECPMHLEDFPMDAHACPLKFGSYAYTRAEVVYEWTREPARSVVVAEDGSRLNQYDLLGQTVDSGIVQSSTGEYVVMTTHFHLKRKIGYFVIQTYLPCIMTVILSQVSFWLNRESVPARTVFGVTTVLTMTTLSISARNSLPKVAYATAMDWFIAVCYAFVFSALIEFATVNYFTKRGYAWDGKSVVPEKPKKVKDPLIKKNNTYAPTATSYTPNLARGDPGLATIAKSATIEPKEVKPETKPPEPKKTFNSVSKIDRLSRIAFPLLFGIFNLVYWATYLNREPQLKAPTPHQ
T1 sequence (P63138 25-474 partner limits assumed): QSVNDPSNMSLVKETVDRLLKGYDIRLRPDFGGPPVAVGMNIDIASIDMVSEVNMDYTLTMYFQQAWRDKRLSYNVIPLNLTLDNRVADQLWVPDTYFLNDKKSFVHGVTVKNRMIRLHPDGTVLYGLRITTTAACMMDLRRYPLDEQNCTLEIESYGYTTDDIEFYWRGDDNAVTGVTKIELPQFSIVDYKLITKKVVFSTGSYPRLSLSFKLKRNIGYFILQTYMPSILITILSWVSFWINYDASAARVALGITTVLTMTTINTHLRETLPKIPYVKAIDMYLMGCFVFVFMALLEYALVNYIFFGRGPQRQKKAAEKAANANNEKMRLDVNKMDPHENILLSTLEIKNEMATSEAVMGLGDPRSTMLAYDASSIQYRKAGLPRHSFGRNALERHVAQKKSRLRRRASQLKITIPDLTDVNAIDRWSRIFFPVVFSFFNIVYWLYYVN
T1 sequence (P18508 39-466): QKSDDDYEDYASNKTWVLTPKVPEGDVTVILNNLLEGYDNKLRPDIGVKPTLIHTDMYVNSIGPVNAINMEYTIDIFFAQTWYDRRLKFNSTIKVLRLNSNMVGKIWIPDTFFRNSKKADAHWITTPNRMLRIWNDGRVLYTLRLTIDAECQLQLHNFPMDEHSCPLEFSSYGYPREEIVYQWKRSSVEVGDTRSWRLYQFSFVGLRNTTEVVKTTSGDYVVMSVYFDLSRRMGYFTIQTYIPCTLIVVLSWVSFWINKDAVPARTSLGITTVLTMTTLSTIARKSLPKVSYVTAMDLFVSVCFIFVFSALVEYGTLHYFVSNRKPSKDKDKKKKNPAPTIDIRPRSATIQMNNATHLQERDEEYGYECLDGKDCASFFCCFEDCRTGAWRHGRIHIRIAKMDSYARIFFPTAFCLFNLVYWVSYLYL

As to `CN(C)Cc1nc(-c2ncn3c2CN(C)C(=O)c2c(Cl)cccc2-3)no1` [compound of formula (II), 7-chloro-3-(5-dimethylaminomethyl-[1,2,4]oxadiazol-3-yl)-5-methyl-4,5-dihydro-imidazo[1,5-a][1,4]benzodiazepine-6-one], the “Intrinsic activity / type of allosteric modulation” value at α1β2γ2 GABAA receptors (GABAA receptor benzodiazepine site) is on record as “partial agonist; also recorded: partial positive allosteric modulator”. Besides, the “Receptor subtype preference in comparison to α5β2γ2, α3β2γ2 and α2β2γ2” value on α1β2γ2 GABAA receptors (concentrations <100 nM) was “preference for α1β2γ2 GABAA receptors”. Further, in data set [1], the “pharmacokinetic (PK) profile in non-elderly versus elderly” value is given as “similar”.
